The results in this text go back to patent publication US10793563B2, “GCN2 inhibitors and uses thereof” (Merck Patent GmbH, priority 2018, dated 2020).

SMILES strings stand for the structures. pEC50, pIC50, pKi: −log10 of the molar value.

The target of one assay is GCN2 kinase (Homo sapiens (Human), UniProt Q9P2K8). The assay is described as follows: GCN2 Enzyme Inhibition Assay (Transcreener ADP2 fluorescence polarization). The assay is classed as biochemical. The following applies: 280 μM ATP, 200 μM (RS)7 peptide, 4 nM GCN2, 25° C. In short, it runs like this:
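Transcreener ADP2 fluorescence polarization detection of ADP from 4 nM GCN2 with (RS)7 substrate in 25 mM Tris-HCl pH 7.5, 50 mM NaCl, 10 mM MgCl2, 1 mM DTT. Compound pre-incubated with enzyme 10 min at 25 °C; reaction started by ATP, run 1 h at 25 °C. IC50 and Ki(app) by tight-binding fit.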

For assay [1], the target named is intracellular GCN2 (phosphorylation of the GCN2 substrate eIF2α) (Homo sapiens (Human), UniProt Q9P2K8). The assay is described as follows: GCN2 Cellular Inhibition Assay (AlphaScreen SureFire P-eIF2α Ser51, borrelidin-treated U2OS cells). The assay is classed as cell-based. The following applies: 10 μM borrelidin, 1 h, phosphorylated eIF2α Ser51, read-out: GCN2 Biomarker (IC50). In short, it runs like this:
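U2OS cells adhered overnight, then given compound (top 40 μM, 4-fold serial dilutions) plus 10 μM borrelidin for 1 h at 37 °C. Lysates assayed for eIF2α phospho-Ser51 by AlphaScreen SureFire; % inhibition versus borrelidin-only wells.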

Assay [2] deals with primary human pan T-cells. The assay is described as follows: Human IL-2 Assay for GCN2 Inhibition (IL-2 secretion from T cells in low amino acid condition). The following applies: IL-2 secretion from human T cells stimulated with anti-CD3/CD28 in low amino acid condition, ELISA; for pEC50: Homo sapiens, T-cell, 96 h, read-out: IL2/T-cell EC50; for IL2/T-cell EC50: 96 hours. The class given is cell-based. An excerpt:
Tumor microenvironment is profoundly immuno-suppressive. This may be attributed to the depletion of amino acids (like arginine and tryptophan) which triggers the activation of GCN2 in immune cells, including T cell and myeloid cells. In T cells, activation of GCN2 leads to reduce effector functions of CD8 T cells and induction and/or maintenance of immuno-suppressive T-regs. Inhibition of that immuno-suppressive response by GCN2 inhibitors enables an anti-cancer immune response by activating effector T-cells. Herein we describe an in-vitro system we established using human T-cells stimulated in low amino acid condition in order to engage the GCN2 biology. The method described involves the modulation of IL-2 levels secreted by human T cells in responses to the GCN2 inhibitors disclosed herein.
Amino acid-free RPMI was reconstituted with all but one of the amino acids found in standard RMPI (e.g. Arginine, Tryptophan), 10% charcoal-stripped fetal bovine serum, 100 Units/mL penicillin and 0.1 mg/mL streptomycin. Primary human pan T-cells were isolated using Pan T Cell Isolation Kit, human (MACS Miltenyi biotech Cat # Order no. 130-096-535) from apheresis cones and 5×104 pan T-cells per well. The purified T cells are seeded in Nunc™ 96-Well Polystyrene Round Bottom Microwell Plates (the cells are rested in No TRP media in a 15 ml falcon tube in the incubator for 30-45 minutes while titrations for tryptophan and the GCN2 inhibitor compound are made) A plate matrix was developed to titrate both a GCN2 inhibitor and the amino acid of interest ranging from “No Amino Acid” condition, up to the concentration found in the regular RPMI media (20 μM for TRP and 950 μM for Arginine). The cells were incubated for 30 min at 37° C. with the GCN2 inhibitor and then stimulated with 5×104 anti-CD3/CD28 Dynabeads® per well. After 96 hours of incubation the IL-2 level in the supernatant were measured using ELISA (R&D systems Cat # DY202 (Human IL-2 DuoSet ELISA). Data were plotted in GraphPad Prism software and EC50 is calculated.
In general terms: In an ELISA, binding on a coated surface is turned into a signal by an enzyme label.

Chain of GCN2 kinase (Q9P2K8 whole entry): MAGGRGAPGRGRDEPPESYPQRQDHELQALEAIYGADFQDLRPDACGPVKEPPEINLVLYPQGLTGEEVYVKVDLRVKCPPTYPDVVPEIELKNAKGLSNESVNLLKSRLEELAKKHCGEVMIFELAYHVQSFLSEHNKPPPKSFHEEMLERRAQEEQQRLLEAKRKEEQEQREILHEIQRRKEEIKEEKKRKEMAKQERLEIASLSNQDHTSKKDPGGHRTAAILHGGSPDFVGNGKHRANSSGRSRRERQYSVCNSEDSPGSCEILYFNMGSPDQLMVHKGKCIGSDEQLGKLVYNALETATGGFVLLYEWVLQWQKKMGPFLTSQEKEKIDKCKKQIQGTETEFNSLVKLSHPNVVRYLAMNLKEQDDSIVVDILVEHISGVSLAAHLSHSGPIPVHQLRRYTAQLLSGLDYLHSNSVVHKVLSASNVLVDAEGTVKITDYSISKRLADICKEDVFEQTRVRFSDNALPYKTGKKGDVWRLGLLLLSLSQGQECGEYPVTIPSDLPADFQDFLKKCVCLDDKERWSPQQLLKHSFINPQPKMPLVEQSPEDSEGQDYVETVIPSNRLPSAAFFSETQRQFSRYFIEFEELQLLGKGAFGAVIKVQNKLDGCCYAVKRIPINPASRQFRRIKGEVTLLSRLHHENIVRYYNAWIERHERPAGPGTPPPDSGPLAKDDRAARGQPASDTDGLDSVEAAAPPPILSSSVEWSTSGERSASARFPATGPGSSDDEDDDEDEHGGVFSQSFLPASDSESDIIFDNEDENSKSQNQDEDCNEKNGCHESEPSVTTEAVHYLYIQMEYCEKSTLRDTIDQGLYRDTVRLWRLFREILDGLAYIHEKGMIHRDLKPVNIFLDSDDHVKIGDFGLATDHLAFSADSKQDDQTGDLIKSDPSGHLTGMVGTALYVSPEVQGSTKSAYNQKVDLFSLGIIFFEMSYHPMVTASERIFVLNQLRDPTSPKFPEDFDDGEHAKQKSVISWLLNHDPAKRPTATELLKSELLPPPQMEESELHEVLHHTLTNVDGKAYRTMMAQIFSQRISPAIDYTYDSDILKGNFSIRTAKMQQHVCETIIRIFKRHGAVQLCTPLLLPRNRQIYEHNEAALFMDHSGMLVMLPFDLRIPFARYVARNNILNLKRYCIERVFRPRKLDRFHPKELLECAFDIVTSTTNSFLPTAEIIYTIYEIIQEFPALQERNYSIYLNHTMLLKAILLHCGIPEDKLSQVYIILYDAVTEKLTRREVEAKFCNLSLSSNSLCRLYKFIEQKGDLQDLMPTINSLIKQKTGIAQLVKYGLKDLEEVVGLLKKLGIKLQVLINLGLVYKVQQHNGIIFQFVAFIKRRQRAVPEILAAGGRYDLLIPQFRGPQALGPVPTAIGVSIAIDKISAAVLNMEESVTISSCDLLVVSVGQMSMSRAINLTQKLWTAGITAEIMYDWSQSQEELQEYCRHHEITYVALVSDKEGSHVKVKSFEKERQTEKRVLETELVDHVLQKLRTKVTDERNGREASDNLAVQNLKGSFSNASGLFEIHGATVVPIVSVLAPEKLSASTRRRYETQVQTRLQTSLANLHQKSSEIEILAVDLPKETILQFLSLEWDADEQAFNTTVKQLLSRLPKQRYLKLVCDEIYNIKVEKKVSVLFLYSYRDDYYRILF
Chain of intracellular GCN2 (phosphorylation of the GCN2 substrate eIF2α) (Q9P2K8 whole entry): as above

Turning to `CS(=O)(=O)C1CC(N2CCN(c3ccnc(-c4cnc5ccc(C(F)(F)F)cn45)n3)C[C@@H]2c2cn[nH]c2)C1` (stereo partly drawn) [I-495, 3-{4-[(S)-4-(3-Methanesulfonyl-cyclobutyl)-3-(1H-pyrazol-4-yl)-piperazin-1-yl]-pyrimidin-2-yl}-6-trifluoromethyl-imidazo[1,2-a]pyridine], the negative logarithm of the IC50 (pIC50) (usually the negative decadic logarithm of the IC50, by convention in mol/L) on GCN2 kinase is above 8.00; in assay [1], above 6.30. Moreover, the pEC50 in assay [2] was below 6.30.

Turning to `C[C@@H]1CN(c2nccc(-c3cnc4ccc(C(F)(F)F)cn34)n2)C[C@@H](c2cn[nH]c2)O1` [I-135, (2R,6R)-2-methyl-6-(1H-pyrazol-4-yl)-4-(4-(6-(trifluoromethyl)imidazo[1,2-a]pyridin-3-yl)pyrimidin-2-yl)morpholine], the negative-log IC50 (pIC50) against GCN2 kinase was above 8.00; in assay [1], above 6.30. In assay [2], the pEC50 was 6.30 to 7.00.

For `C[C@H]1CN(c2ccnc(-c3cnc4ccc(Cl)cn34)n2)C[C@@H](c2cn[nH]c2F)O1` [I-176, (2R,6S)-4-(2-(6-chloroimidazo[1,2-a]pyridin-3-yl)pyrimidin-4-yl)-2-(5-fluoro-1H-pyrazol-4-yl)-6-methylmorpholine], the pIC50 was above 8.00 against GCN2 kinase and above 6.30 in assay [1]. For the same compound, in assay [2], the pEC50 was above 7.00.

Take `CC1CC1CN1CCN(c2ccnc(-c3cnc4ccc(C(F)(F)F)cn34)n2)CC1c1cn[nH]c1` (centres unmarked) [I-473, 3-(4-(4-((2-methylcyclopropyl)methyl)-3-(1H-pyrazol-4-yl)piperazin-1-yl)pyrimidin-2-yl)-6-(trifluoromethyl)imidazo[1,2-a]pyridine]: the pIC50 was above 8.00 on GCN2 kinase and above 6.30 in assay [1]. Also, the pEC50 in assay [2] is 6.30 to 7.00.

As to `NC(=O)[C@H]1CN(c2ccnc(-c3cnc4ccc(C(F)(F)F)cn34)n2)CCN1C1CC1` [I-323, (R)-1-cyclopropyl-4-(2-(6-(trifluoromethyl)imidazo[1,2-a]pyridin-3-yl)pyrimidin-4-yl)piperazine-2-carboxamide], the pIC50 against GCN2 kinase was above 8.00; in assay [1], 5.30 to 6.30. Further, the pEC50 in assay [2] is below 6.30.

With `Cc1cnc(N2C[C@H](C)C[C@H](c3cn[nH]c3)C2)nc1-c1cnc2ccc(Cl)cn12` [I-185, 6-chloro-3-(5-methyl-2-((3R,5R)-3-methyl-5-(1H-pyrazol-4-yl)piperidin-1-yl)pyrimidin-4-yl)imidazo[1,2-a]pyridine], the results for the pIC50 (on GCN2 kinase; in assay [1]) were 7.00 to 8.00 and above 6.30, respectively. For the same compound, the “IL2/T-cell EC50” value in assay [2] is reported as “− (“−” for not active)”.

In the case of `C[C@H]1CN(c2nccc(-c3cnc4ccc(Cl)cn34)n2)C[C@@H](c2cn[nH]c2)O1` [I-247, 6-Chloro-3-{2-[(2S,6R)-2-methyl-6-(1H-pyrazol-4-yl)-morpholin-4-yl]-pyrimidin-4-yl}-imidazo[1,2-a]pyridine], the values for the pIC50 (on GCN2 kinase; in assay [1]) were above 8.00 and above 6.30, respectively. Further, the pEC50 in assay [2] was above 7.00.

In the case of `CC1CCC(C(N)=O)CN1c1ccnc(-c2cnc3ccc(C(F)(F)F)cn23)n1` (centres unmarked) [I-200, 6-methyl-1-(2-(6-(trifluoromethyl)imidazo[1,2-a]pyridin-3-yl)pyrimidin-4-yl)piperidine-3-carboxamide], the pIC50 at GCN2 kinase was above 8.00; in assay [1] it was above 6.30. For the same compound, in assay [2], the pEC50 is 6.30 to 7.00.

Consider `FC(F)(F)c1ccc2ncc(-c3nccc(N4CCN(CC5CCOCC5)C(c5cn[nH]c5)C4)n3)n2c1` (centres unmarked) [I-354, 3-(4-(3-(1H-pyrazol-4-yl)-4-((tetrahydro-2H-pyran-4-yl)methyl)piperazin-1-yl)pyrimidin-2-yl)-6-(trifluoromethyl)imidazo[1,2-a]pyridine], for which the negative logarithm of the IC50 (pIC50) was above 8.00 on GCN2 kinase and above 6.30 in assay [1]. Besides, the pEC50 in assay [2] is 6.30 to 7.00.

Turning to `Cc1[nH]ncc1[C@H]1C[C@@H](O)CN(c2ccnc(-c3cnc4ccc(C(F)(F)F)cn34)n2)C1` [I-315, (3R,5R)-5-(3-Methyl-1H-pyrazol-4-yl)-1-[2-(6-trifluoromethyl-imidazo[1,2-a]pyridin-3-yl)-pyrimidin-4-yl]-piperidin-3-ol], the figures for the pIC50 (on GCN2 kinase; in assay [1]) were above 8.00 and above 6.30, respectively. The pEC50 in assay [2] was 6.30 to 7.00.

For `C[C@@H]1CN(c2nccc(-c3cnc4ccc(C(F)(F)F)cn34)n2)C[C@H](c2cn[nH]c2)O1` [I-127, 3-{2-[(2R,6S)-2-Methyl-6-(1H-pyrazol-4-yl)-morpholin-4-yl]-pyrimidin-4-yl}-6-trifluoromethyl-imidazo[1,2-a]pyridine], the values for the pIC50 (against GCN2 kinase; in assay [1]) were above 8.00 and above 6.30, respectively. For the same compound, the pEC50 in assay [2] was above 7.00.

For `C[C@@H]1C[C@H](N=S(C)(C)=O)CN(c2nccc(-c3cnc4ccc(C(F)F)cn34)n2)C1` [I-499, (((3 S,5R)-1-(4-(6-(difluoromethyl)imidazo[1,2-a]pyridin-3-yl)pyrimidin-2-yl)-5-methylpiperidin-3-yl)imino)dimethyl-λ6-sulfanone], the pIC50 was above 8.00 at GCN2 kinase and above 6.30 in assay [1]. Further, the pEC50 in assay [2] was below 6.30.

With `NC(=O)[C@H]1CCCN(c2ccnc(-c3cnc4ccc(C(F)(F)F)cn34)n2)C1` [I-154, (S)-1-[2-(6-Trifluoromethyl-imidazo[1,2-a]pyridin-3-yl)-pyrimidin-4-yl]-piperidine-3-carboxylic acid amide], the negative-log IC50 (pIC50) was above 8.00 against GCN2 kinase and above 6.30 in assay [1]. In addition, the pKi (in general, the Ki on a negative log10 scale, so that one unit is a factor of ten) on GCN2 kinase (Ki(app)) was above 8.00. In assay [2], the pEC50 was above 7.00.

Regarding `Cc1cc(-c2cnc3ccc(Cl)cn23)nc(N2C[C@H](C)C[C@H](c3cn[nH]c3)C2)n1` [I-209, 6-chloro-3-(6-methyl-2-((3R,5R)-3-methyl-5-(1H-pyrazol-4-yl)piperidin-1-yl)pyrimidin-4-yl)imidazo[1,2-a]pyridine], the negative-log IC50 (pIC50) is 7.00 to 8.00 at GCN2 kinase and above 6.30 in assay [1]. Moreover, the pEC50 in assay [2] was 6.30 to 7.00.

For the compound `C[C@H]1C[C@@H](C(N)=O)CN(c2ccnc(-c3cnc4ccc(C(F)(F)F)cn34)n2)C1` [I-148, (3R,5S)-5-methyl-1-(2-(6-(trifluoromethyl)imidazo[1,2-a]pyridin-3-yl)pyrimidin-4-yl)piperidine-3-carboxamide], the values for the pIC50 (against GCN2 kinase; in assay [1]) were above 8.00 and above 6.30, respectively. In assay [2], the pEC50 was 6.30 to 7.00.

On to `C[C@H]1CN(c2nccc(-c3cnc4ccc(C(F)(F)F)cn34)n2)[C@@H](C)C(c2cn[nH]c2)N1` (stereo partly drawn) [I-170, 3-(2-((2S,5S)-2,5-dimethyl-3-(1H-pyrazol-4-yl)piperazin-1-yl)pyrimidin-4-yl)-6-(trifluoromethyl)imidazo[1,2-a]pyridine], for which the pIC50 against GCN2 kinase is 7.00 to 8.00; in assay [1], above 6.30. Besides, in assay [2], the pEC50 was 6.30 to 7.00.

On to `Cc1[nH]ncc1[C@@H]1C[C@H](O)CN(c2ccnc(-c3cnc4ccc(C(F)(F)F)cn34)n2)C1` [I-314, (3 S,5S)-5-(3-Methyl-1H-pyrazol-4-yl)-1-[2-(6-trifluoromethyl-imidazo[1,2-a]pyridin-3-yl)-pyrimidin-4-yl]-piperidin-3-ol], for which the negative-log IC50 (pIC50) at GCN2 kinase was above 8.00; in assay [1], above 6.30. Besides, the “IL2/T-cell EC50” value in assay [2] is reported as “− (“−” for not active)”.

In the case of `C[C@H]1C[C@@H](c2cn[nH]c2)CN(c2nccc(-c3cnc4ccc(C5CC5)cn34)n2)C1` [I-250, 6-Cyclopropyl-3-{2-[(3 S,5S)-3-methyl-5-(1H-pyrazol-4-yl)-piperidin-1-yl]-pyrimidin-4-yl}-imidazo[1,2-a]pyridine], the negative logarithm of the IC50 (pIC50) at GCN2 kinase is 7.00 to 8.00; in assay [1], above 6.30. Further, in assay [2], the “IL2/T-cell EC50” value was “− (“−” for not active)”.

For `C[C@H]1C[C@@H](N=S(C)(C)=O)CN(c2ccnc(-c3cnc4ccc(C(F)(F)F)cn34)n2)C1` (stereo in doubt) [I-123, Dimethyl(((3R,5S)-5-methyl-1-(2-(6-(trifluoromethyl)imidazo[1,2-a]pyridin-3-yl)pyrimidin-4-yl)piperidin-3-yl)imino)-λ6-sulfanone], the pIC50 was 7.00 to 8.00 against GCN2 kinase and above 6.30 in assay [1]. For the same compound, in assay [2], the pEC50 was below 6.30. The “IL2/T-cell EC50” value in assay [2] is reported as “− (“−” for not active)”.
